Results: PubChem BioAssay AID1259407 (Chemical Carcinogenesis Research Information System (CCRIS), 2018)
The source made the active and inactive calls. How the calls were made is not given here.

Tested on: CCRIS mutagenicity, Ames/micronucleus/aberration tests
Assay: CCRIS mutagenicity studies
[1] = Test System: AMES SALMONELLA TYPHIMURIUM, Strain/Indicator: TA98, Metabolic Activation: NONE, Method: STANDARD PLATE
[2] = Test System: AMES SALMONELLA TYPHIMURIUM, Strain/Indicator: TA100, Metabolic Activation: NONE, Method: PREINCUBATION
[3] = Test System: AMES SALMONELLA TYPHIMURIUM, Strain/Indicator: TA100, Metabolic Activation: NONE, Method: STANDARD PLATE
[4] = Test System: AMES SALMONELLA TYPHIMURIUM, Strain/Indicator: TA1535, Metabolic Activation: NONE, Method: STANDARD PLATE

[Si]
mutagenic call (Test System: AMES SALMONELLA TYPHIMURIUM, Strain/Indicator: TA98, Metabolic Activation: RAT LIVER S-9, PHENOBARBITAL AND BETA-NAPHTHOFLAVONE, Method: GAS EXPOSURE): active; positive
mutagenic call (Test System: AMES SALMONELLA TYPHIMURIUM, Strain/Indicator: TA98, Metabolic Activation: RAT, LIVER, S-9, PHENOBARBITAL AND 5,6-BENZOFLAVONE, Method: GAS EXPOSURE): active; positive
mutagenic call (Test System: AMES SALMONELLA TYPHIMURIUM, Strain/Indicator: TA100, Metabolic Activation: NONE, Method: GAS EXPOSURE): inactive; negative
mutagenic call (Test System: AMES SALMONELLA TYPHIMURIUM, Strain/Indicator: TA100, Metabolic Activation: RAT LIVER S-9, PHENOBARBITAL AND BETA-NAPHTHOFLAVONE, Method: GAS EXPOSURE): inactive; negative
mutagenic call (Test System: AMES SALMONELLA TYPHIMURIUM, Strain/Indicator: TA100, Metabolic Activation: RAT, LIVER, S-9, PHENOBARBITAL AND 5,6-BENZOFLAVONE, Method: GAS EXPOSURE): inactive; negative
mutagenic call (Test System: AMES SALMONELLA TYPHIMURIUM, Strain/Indicator: TA1535, Metabolic Activation: NONE, Method: GAS EXPOSURE): inactive; negative
mutagenic call (Test System: AMES SALMONELLA TYPHIMURIUM, Strain/Indicator: TA1535, Metabolic Activation: RAT LIVER S-9, PHENOBARBITAL AND BETA-NAPHTHOFLAVONE, Method: GAS EXPOSURE): inactive; negative
mutagenic call (Test System: AMES SALMONELLA TYPHIMURIUM, Strain/Indicator: TA1535, Metabolic Activation: RAT, LIVER, S-9, PHENOBARBITAL AND 5,6-BENZOFLAVONE, Method: GAS EXPOSURE): inactive; negative
mutagenic call (Test System: AMES SALMONELLA TYPHIMURIUM, Strain/Indicator: TA1537, Metabolic Activation: RAT, LIVER, S-9, PHENOBARBITAL AND 5,6-BENZOFLAVONE, Method: GAS EXPOSURE): active; positive
mutagenic call (Test System: E. COLI, Strain/Indicator: WP2 UVRA, Metabolic Activation: NONE, Method: GAS EXPOSURE): inactive; negative
mutagenic call (Test System: E. COLI, Strain/Indicator: WP2 UVRA, Metabolic Activation: RAT, LIVER, S-9, PHENOBARBITAL AND 5,6-BENZOFLAVONE, Method: GAS EXPOSURE): inactive; negative
mutagenic call (Test System: E.COLI, Strain/Indicator: WP2UVRA, Metabolic Activation: NONE, Method: GAS EXPOSURE): inactive; negative
mutagenic call (Test System: E.COLI, Strain/Indicator: WP2UVRA, Metabolic Activation: RAT LIVER S-9, PHENOBARBITAL AND BETA-NAPHTHOFLAVONE, Method: GAS EXPOSURE): inactive; negative

CC(=O)[O-].CC(=O)[O-].O.O.O.O.[Co+2]
mutagenic call (End Point: In vitro chromosomal aberrations, Test System: Chinese hamster lung (CHL/IU) cells, Metabolic Activation: None): active; positive (structural changes)
mutagenic call (End Point: In vitro chromosomal aberrations, Test System: Chinese hamster lung (CHL/IU) cells, Metabolic Activation: Rat, Liver, S9, Phenobarbital and 5,6-benzoflavone): active; positive (structural changes)
mutagenic call (Test System: Ames Salmonella typhimurium, Strain/Indicator: TA98, Metabolic Activation: Rat, Liver, S9, Sodium phenobarbital and 5,6-benzoflavone (10%), Method: Preincubation): inactive; negative
mutagenic call (Test System: Ames Salmonella typhimurium, Strain/Indicator: TA100, Metabolic Activation: Rat, Liver, S9, Sodium phenobarbital and 5,6-benzoflavone (10%), Method: Preincubation): inactive; negative
mutagenic call (Test System: Ames Salmonella typhimurium, Strain/Indicator: TA1535, Metabolic Activation: None, Method: Preincubation): inactive; negative
mutagenic call (Test System: Ames Salmonella typhimurium, Strain/Indicator: TA1535, Metabolic Activation: Rat, Liver, S9, Sodium phenobarbital and 5,6-benzoflavone (10%), Method: Preincubation): inactive; negative
mutagenic call (Test System: Ames Salmonella typhimurium, Strain/Indicator: TA1537, Metabolic Activation: Rat, Liver, S9, Sodium phenobarbital and 5,6-benzoflavone (10%), Method: Preincubation): inactive; negative
mutagenic call (Test System: E. coli, Strain/Indicator: WP2uvrA/pKM101, Metabolic Activation: None, Method: Preincubation): active; positive
mutagenic call (Test System: E. coli, Strain/Indicator: WP2uvrA/pKM101, Metabolic Activation: Rat, Liver, S9, Sodium phenobarbital and 5,6-benzoflavone (10%), Method: Preincubation): inactive; negative

CCCCCCCCCC(=O)N=c1sn(C(=O)CCCCCCCCC)c2ccc([N+](=O)[O-])cc12
mutagenic call (Test System: AMES SALMONELLA TYPHIMURIUM, Strain/Indicator: TA100, Metabolic Activation: S-9, Method: STANDARD PLATE): active; positive

NCCc1c[nH]c2ccccc12
mutagenic call (Test System: AMES SALMONELLA TYPHIMURIUM, Strain/Indicator: TA97A, Metabolic Activation: NONE, Method: STANDARD PLATE): inactive; negative
mutagenic call (Test System: AMES SALMONELLA TYPHIMURIUM, Strain/Indicator: TA97A, Metabolic Activation: RAT LIVER S-9, PHENOBARBITOL/BETA-NAPHTHOFLAVONE, Method: STANDARD PLATE): inactive; negative
mutagenic call [1]: inactive; negative
mutagenic call (Test System: AMES SALMONELLA TYPHIMURIUM, Strain/Indicator: TA98, Metabolic Activation: RAT LIVER S-9, PHENOBARBITOL/BETA-NAPHTHOFLAVONE, Method: STANDARD PLATE): inactive; negative
mutagenic call [2]: inactive; negative
mutagenic call [3]: inactive; negative
mutagenic call (Test System: AMES SALMONELLA TYPHIMURIUM, Strain/Indicator: TA100, Metabolic Activation: RAT LIVER S-9, PHENOBARBITOL/BETA-NAPHTHOFLAVONE, Method: STANDARD PLATE): inactive; negative
mutagenic call [4]: inactive; negative
mutagenic call (Test System: AMES SALMONELLA TYPHIMURIUM, Strain/Indicator: TA1535, Metabolic Activation: RAT LIVER S-9, PHENOBARBITOL/BETA-NAPHTHOFLAVONE, Method: STANDARD PLATE): inactive; negative
mutagenic call (Test System: E.COLI, Strain/Indicator: WP2/UVRA, Metabolic Activation: NONE, Method: STANDARD PLATE): inactive; negative
mutagenic call (Test System: E.COLI, Strain/Indicator: WP2/UVRA, Metabolic Activation: RAT LIVER S-9, PHENOBARBITOL/BETA-NAPHTHOFLAVONE, Method: STANDARD PLATE): inactive; negative

Nc1ccc(N=Nc2ccccc2)cc1
mutagenic call (Test System: AMES SALMONELLA TYPHIMURIUM, Strain/Indicator: TA98, Metabolic Activation: HAMSTER, LIVER, S-9, AROCLOR 1254 (30%), Method: PREINCUBATION): active; positive
mutagenic call (Test System: AMES SALMONELLA TYPHIMURIUM, Strain/Indicator: TA98, Metabolic Activation: NONE, Method: PREINCUBATION): inactive; negative
mutagenic call [1]: inactive; negative
mutagenic call (Test System: AMES SALMONELLA TYPHIMURIUM, Strain/Indicator: TA98, Metabolic Activation: RAT, LIVER, MICROSOMES, 4-AMINOAZOBENZENE, Method: PREINCUBATION): inactive; negative
mutagenic call (Test System: AMES SALMONELLA TYPHIMURIUM, Strain/Indicator: TA98, Metabolic Activation: RAT, LIVER, MICROSOMES, AROCLOR 1254, Method: PREINCUBATION): inactive; negative
mutagenic call (Test System: AMES SALMONELLA TYPHIMURIUM, Strain/Indicator: TA98, Metabolic Activation: RAT, LIVER, MICROSOMES, Method: PREINCUBATION): inactive; negative
mutagenic call (Test System: AMES SALMONELLA TYPHIMURIUM, Strain/Indicator: TA98, Metabolic Activation: RAT, LIVER, S-9, AROCLOR 1254 (30%), Method: PREINCUBATION): active; positive
mutagenic call (Test System: AMES SALMONELLA TYPHIMURIUM, Strain/Indicator: TA98, Metabolic Activation: RAT, LIVER, S-9, AROCLOR 1254, Method: STANDARD PLATE): active; positive
mutagenic call (Test System: AMES SALMONELLA TYPHIMURIUM, Strain/Indicator: TA98, Metabolic Activation: RAT, LIVER, S-9, KC500 OR PHENOBARBITAL, Method: LIQUID SUSPENSION): active; positive
mutagenic call (Test System: AMES SALMONELLA TYPHIMURIUM, Strain/Indicator: TA98, Metabolic Activation: RAT, LIVER, S-9, PCB, Method: PREINCUBATION): active; positive
mutagenic call (Test System: AMES SALMONELLA TYPHIMURIUM, Strain/Indicator: TA100, Metabolic Activation: HAMSTER, LIVER, S-9, AROCLOR 1254 (30%), Method: PREINCUBATION): active; positive
mutagenic call [2]: inactive; negative
mutagenic call [3]: inactive; negative
mutagenic call (Test System: AMES SALMONELLA TYPHIMURIUM, Strain/Indicator: TA100, Metabolic Activation: RAT, LIVER, S-9, AROCLOR 1254 (30%), Method: PREINCUBATION): inactive; negative
mutagenic call (Test System: AMES SALMONELLA TYPHIMURIUM, Strain/Indicator: TA100, Metabolic Activation: RAT, LIVER, S-9, AROCLOR 1254, Method: STANDARD PLATE): active; positive
mutagenic call (Test System: AMES SALMONELLA TYPHIMURIUM, Strain/Indicator: TA100, Metabolic Activation: RAT, LIVER, S-9, KC500 OR PHENOBARBITAL, Method: LIQUID SUSPENSION): active; positive
mutagenic call (Test System: AMES SALMONELLA TYPHIMURIUM, Strain/Indicator: TA100, Metabolic Activation: RAT, LIVER, S-9, PCB, Method: PREINCUBATION): active; positive
mutagenic call (Test System: AMES SALMONELLA TYPHIMURIUM, Strain/Indicator: TA1538, Metabolic Activation: RAT, LIVER, S-9, AROCLOR 1254, Method: STANDARD PLATE): active; positive
mutagenic call (Test System: UDS RODENT HEPATOCYTES, Strain/Indicator: THY INCORP (NON-S-PHASE), Method: AUTORADIOGRAPHY): active; positive

CN(Cc1ccc(C(=O)O)cc1)N=O
mutagenic call (Test System: AMES SALMONELLA TYPHIMURIUM, Strain/Indicator: TA1535, Metabolic Activation: HAMSTER, LIVER, S-9, AROCLOR 1254, Method: STANDARD PLATE): inactive; negative
mutagenic call [4]: inactive; negative
